From publication PMC6367362, “MD001, a Novel Peroxisome Proliferator-activated Receptor α/γ Agonist, Improves Glucose and Lipid Metabolism” (Scientific Reports, 2019) come the findings set out here.

This assay has as its target T1, human HA-PPARα (Homo sapiens, UniProt Q07869).
T1 construct: expressed in transfected cells; host or cells: HEK293
T1 sequence (Q07869 1-468): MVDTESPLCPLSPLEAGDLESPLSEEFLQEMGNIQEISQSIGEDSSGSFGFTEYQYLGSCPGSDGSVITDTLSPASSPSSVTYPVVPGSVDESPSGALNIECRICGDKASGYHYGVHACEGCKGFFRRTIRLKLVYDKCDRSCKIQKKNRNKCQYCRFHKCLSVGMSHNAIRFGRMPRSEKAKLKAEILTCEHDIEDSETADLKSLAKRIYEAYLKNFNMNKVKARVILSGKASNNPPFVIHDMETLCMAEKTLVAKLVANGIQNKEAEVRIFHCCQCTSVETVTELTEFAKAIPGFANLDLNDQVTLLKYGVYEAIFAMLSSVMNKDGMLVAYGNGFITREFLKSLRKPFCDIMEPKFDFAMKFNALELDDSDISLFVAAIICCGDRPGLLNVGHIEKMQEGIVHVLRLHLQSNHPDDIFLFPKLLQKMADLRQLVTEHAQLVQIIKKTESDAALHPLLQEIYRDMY
The assay is described as follows: PPRE luciferase activity assay in HEK293 cells transfected with HA-PPARα. The format is cell-based. Also noted: transcriptional activity of PPARα: dose or concentration left out as unconfirmed. Conditions: HEK293, PPRE-pk-Luc. On the procedure: Figure 2 MD001 induces the expression of target genes through PPARα and PPARγ activation. HEK293 cells were transiently co-transfected with human HA-PPARα (A) and HA-PPARγ (B) expression vectors along with the reporter plasmid (PPRE-pk-Luc) or control reporter plasmid (pk-Luc) with Renilla vector for 24 h. Cells were treated with MD001 (10 μM), rosiglitazone (rosi) (10 μM) or WY14643 (WY) (10 μM) for 24 h. Luciferase activity was normalised to Renilla luciferase activity as described in the Methods section. **, vs. vehicle. (C) HepG2 cells were treated with MD001 (10 μM) for 24 h, and total RNA was isolated and synthesised into cDNA. Relative expression was quantitated using qRT-PCR. **, vs. vehicle. (D,E) HepG2 cells were transfected with control siRNA, PPARα siRNA (D), or PPARγ siRNA (E) for 48 h and treated with vehicle, WY14643 (10 μM), rosiglitazone (10 μM) or MD001 (10 μM) for 24 h. Subsequently, cells were harvested for total RNA isolation. Relative expression of target genes was quantitated using qRT-PCR. ^#, vs. control siRNA; ^‡, vs. control siRNA/vehicle; ^§, vs. control siRNA/WY; * and **, vs. control siRNA/MD001. Data represent the mean ± SD of three independent experiments. *P < 0.05, **P < 0.01, ^#P < 0.01, ^‡P < 0.01, and ^§P < 0.01.
For transient transfection, cells were transfected with plasmid DNA constructs by polyethylenimine (PEI, Polysciences, Inc., Warrington, PA, USA) according to the manufacturer’s instructions. Transcription activity assays of PPARα and PPARγ in HEK293 cells were performed by co-transfection of HA-PPARα, HA-PPARγ, and peroxisome proliferator-response element (PPRE) reporter plasmid (PPRE-pk-Luc) or control reporter plasmid (pk-Luc) with Renilla vector for 24 h. […] Luciferase activity was measured with the Dual-Luciferase Reporter Assay System (Promega, Madison, WI, USA) and quantified using GloMax (Promega, USA) according to the manufacturer’s protocol. […]
Luciferase activity was measured as described in the Methods section. […]

Regarding `Cc1c(O)cc(O)c2c(-c3ccccc3)c(C(=O)/C=C/c3ccccc3)c(=O)oc12` [MD001], the “transcription via PPARα activation (luciferase activity)” value (10 μM, 24 h, vs. vehicle) was “significantly increased”. Further, the “transcriptional activity of PPARα” value (24 h (Supplementary Fig. S2)) was “promoted simultaneous transcriptional activity”.
